Read-outs that look alike come from different tables or passages of the source. One block for each molecule: values may come before it.
Experiments:
[1] = target: T1, S-tetrahydroprotoberberineoxidase (Berberis wilsoniae, UniProt F1BVB6); assay: KM value of S-tetrahydroprotoberberineoxidase for substrate; format: biochemical, Berberis wilsonae var. subcaulialata; design: S-tetrahydroprotoberberineoxidase can be obtained by extraction from plant materials; from tissue; host or cells: plant material (Berberis wilsoniae inferred); details: at 40° C. and pH 8.9
Description: KM value for R,S-corypalmine at 40° C. and pH 8.9, 1.3 μMoles

[2] = target: T1, S-tetrahydroprotoberberineoxidase; assay: Enzymatic oxidation of R,S-substrates with S-tetrahydroprotoberberineoxidase preparation, photometric analysis; details: 37° C.; for Fate of R-form under enzymatic oxidation: pH=8.9; for Conversion of S-form into oxidized product: pH=8.9, admission of air
[3] = target: T1, S-tetrahydroprotoberberineoxidase; details: pH 8.9
[4] = target: T2, S-tetrahydroprotoberberineoxidase immobilized on calcium alginate (Berberis wilsoniae, UniProt F1BVB6); assay: Enzymatic oxidation with S-tetrahydroprotoberberineoxidase immobilized on calcium alginate, photometric analysis; format: biochemical, Berberis wilsonae var. subcaulialata; details: immobilized enzyme, 30° C., 150 hours, pH=8.9, admission of air
T2 construct: S-tetrahydroprotoberberineoxidase can be obtained by extraction from plant materials; from tissue; host or cells: plant material (Berberis wilsoniae inferred)
T2 sequence (F1BVB6 25-530): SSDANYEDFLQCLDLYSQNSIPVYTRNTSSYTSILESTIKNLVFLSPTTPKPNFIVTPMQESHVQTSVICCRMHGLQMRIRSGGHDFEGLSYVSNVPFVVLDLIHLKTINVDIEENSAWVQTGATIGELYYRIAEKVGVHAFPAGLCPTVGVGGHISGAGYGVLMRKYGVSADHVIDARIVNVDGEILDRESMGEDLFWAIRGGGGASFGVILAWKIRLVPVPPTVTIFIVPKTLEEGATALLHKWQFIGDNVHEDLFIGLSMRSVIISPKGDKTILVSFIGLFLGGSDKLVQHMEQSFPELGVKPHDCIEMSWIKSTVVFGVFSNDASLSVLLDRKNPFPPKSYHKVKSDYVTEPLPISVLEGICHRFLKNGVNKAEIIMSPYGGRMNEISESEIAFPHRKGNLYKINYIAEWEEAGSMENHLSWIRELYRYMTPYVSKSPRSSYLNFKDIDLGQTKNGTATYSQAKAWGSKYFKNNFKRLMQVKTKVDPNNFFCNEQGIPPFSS

[5] = target: T1, S-tetrahydroprotoberberineoxidase; assay: Inhibition of S-tetrahydroprotoberberineoxidase; format: biochemical, Berberis wilsonae var. subcaulialata; design: S-tetrahydroprotoberberineoxidase can be obtained by extraction from plant materials; from tissue; host or cells: plant material (Berberis wilsoniae inferred)

- Km [1]: 1.3 µM
SMILES: COc1cc2c(cc1O)CCN1Cc3c(ccc(OC)c3OC)CC21 (racemic) [R,S-corypalmine]

- Fate of R-form under enzymatic oxidation ([2]; after 2 hours): remained unchanged
SMILES: COc1cc2c(cc1O)CCN1Cc3c(ccc(OC)c3OC)C[C@H]21 [R-corypalmine]

- Fate of R-form under enzymatic oxidation ([2]; after 16 hours): remained unchanged
SMILES: COc1ccc2c(c1)CCN[C@@H]2Cc1cc(O)cc(O)c1 [R-form]

- Conversion of S-form into oxidized product ([3]; 16 h): 100%
SMILES: COc1ccc2c(c1)CCN[C@H]2Cc1cc(O)cc(O)c1 [S-[1-(3',5'-dihydroxy-benzyl)-6-methoxy-1,2,3,4-tetrahydroisoquinoline]]

- Conversion of S-form into oxidized product ([3]; 2 h): 100%
SMILES: COc1cc2c(cc1O)CCN1Cc3c(ccc(OC)c3OC)C[C@@H]21 [S-corypalmine]

Second part, the molecule before the results:

SMILES: COc1ccc2c(c1OC)CN1CCc3cc4c(cc3[C@H]1C2)OCO4 [R-canadine]
- Fate of R-form under enzymatic oxidation ([2]; after 2 hours): remained unchanged

SMILES: COc1ccc(C[C@H]2NCCc3cc(OC)c(O)cc32)cc1O [R-norreticuline]
- Fate of R-form under enzymatic oxidation ([2]; after 16 hours): remained unchanged

SMILES: COc1ccc2c(c1OC)CN1CCc3cc4c(cc3[C@@H]1C2)OCO4 [S-canadine]
- Conversion of S-form into oxidized product ([2]; after 2 hours): 100%

SMILES: COc1ccc(C[C@@H]2NCCc3cc(OC)c(O)cc32)cc1O [S-norreticuline]
- Conversion to 1,2-dehydronorreticuline [4]: complete conversion
- Conversion of S-form into oxidized product ([2]; after 16 hours): 100%

SMILES: CC(=O)CC(C)=O [acetylacetone]
- Inhibition of the enzyme in the presence of the substance [5]: Complete and reversible inhibition

SMILES: O=c1c(O)c(-c2ccc(O)cc2O)oc2cc(O)cc(O)c12 [morin]
- Inhibition of the enzyme in the presence of the substance [5]: Complete and reversible inhibition
